Results: patent US8282721B2, “Coloring composition, thermal transfer recording ink sheet, thermal transfer recording method, color toner, inkjet ink, color filter, and arylidene-pyrazolone dye” (FUJIFILM Corporation, priority 2008, dated 2012)

How the values were obtained:
Format in all cases: physicochemical
[1] = Evaluation of maximum absorption wavelength (absorption spectrometry in ethyl acetate solution); conditions: concentration 1×10^−6 mol/L, optical path length 10 mm
Description: <Evaluation of Maximum Absorption Wavelength>
The thus-obtained arylidene-pyrazolone dyes of Examples 101 to 105 were analyzed absorption spectrometry in an ethyl acetate solution (concentration: 1×10^−6 mol/L, optical path length: 10 mm).

[2] = Light fastness of thermal transfer recorded image (Xe light exposure); conditions: Xe light (17000 lux) for 7 days; retention of status A reflection density 1.0; image from thermal transfer ink sheet
Description: (§1) The thermal transfer recording ink sheet produced in Example 201 and the image-receiving material constructed as above were combined in such a manner that the dye-donating layer could face the image-receiving layer, and this was printed using a thermal head applied to the back of the dye-donating material. The output power of the thermal head was 0.25 W/dot, pulse width was from 0.15 to 15 msec, the dot density was 6 dots/mm. In that manner, the magenta dye was imagewise fixed on the image-receiving layer of the image-receiving material, and as a result, a sharp image print with no transfer unevenness was obtained.
(§2) The thermal transfer recording ink sheets produced in Example 202 to 204 and produced in Comparative Example 201 to 203 were used in place of the thermal transfer recording ink sheet produced in Example 201, tested for image recording.
Next, the thermal transfer image-receiving material that had been recorded by the thermal transfer were exposed to a Xe light (17000 lux) for 7 days, and tested for the light stability (light fastness) of the recorded images. After the exposure, the status A reflection density of the part of each sample having an original status A reflection density of 1.0 before the exposure was measured, and the retention (by percentage) to the reflection density of 1.0 after exposure to that before exposure indicates the image stability. With the retention percentage, the samples were ranked in three, A (from 90% to less than 100%), B (from 80% to less than 90%), C (less than 80%).

[3] = Dye solubility in methyl ethyl ketone/toluene; parameters: key: A (easily soluble); B (soluble); C (difficult to dissolve, but soluble); conditions: solvent methyl ethyl ketone/toluene (1/1, w/w), ranked in three
Description: The dye solubility of each compound in the solvent of methyl ethyl ketone/toluene (1/1, w/w) was ranked in three, A (easily soluble), B (soluble), C (difficult to dissolve, but soluble).

[4] = Wet heat fastness of thermal transfer recorded image (80° C., 70% RH, dark); conditions: 80° C. and 70% RH in a dark place for 7 days; retention of Status A reflection density 1.0; image from thermal transfer ink sheet
Description: as §1, §2
Further, the thermal transfer image-receiving material that had been recorded by the thermal transfer in the same manner as above were stored under the condition of 80° C. and 70% RH in a dark place for 7 days, and checked for the wet heat stability (wet heat fastness) of the image. After exposure to light, the Status A reflection density of the area having an initial Status A reflection density of 1.0 was measured; and the density retentiveness (percentage) relative to the original reflection density 1.0 before exposure to light was computed. Based on the computed data, the samples were evaluated with regard to the stability into three ranks, A (from 90% to less than 100%), B (from 80% to less than 90%), and C (less than 80%).

Compound | Maximum Absorption Wavelength [1] | Light Fastness [2] | Solubility [3] | Wet Heat Fastness [4]
CCOC1=NN(S(C)(=O)=O)C(=O)/C1=C\c1ccc(N(CC)CC)cc1 [Compound Y-1] | 468 nm | A (A (from 90% to less than 100%)) | A | A (A (from 90% to less than 100%))
CCOC1=NN(S(=O)(=O)N(C)C)C(=O)/C1=C\c1ccc(N(CC)CC)cc1 [Compound Y-8] | 462 nm | A (A (from 90% to less than 100%)) | A | A (A (from 90% to less than 100%))
C.I.Disperse Yellow 201 [Comparative Dye 1] |  | A (A (from 90% to less than 100%)) | A | C (C (less than 80%))
CCOC1=NN(c2ccccc2)C(=O)/C1=C\c1ccc(N(CC)CC)cc1 [Comparative Dye 2] |  | A (A (from 90% to less than 100%)) | B | C (C (less than 80%))
CCOC1=NN(C)C(=O)/C1=C\c1ccc(N(CC)CC)cc1 [Comparative Dye 3] |  | B (B (from 80% to less than 90%)) | A | C (C (less than 80%))
